Data: PubChem BioAssay (NCI)
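48-hour exposure; five concentrations; linearly interpolated endpoints. At the GI50, growth is halved. TGI denotes the concentration required for complete inhibition of growth.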

What was measured:
Experiment in all cases: NCI-60 cell line screen, 48 h
PC-3 prostate = test system: PC-3 prostate
CAKI-1 renal = test system: CAKI-1 renal
OVCAR-5 ovarian = test system: OVCAR-5 ovarian
SNB-75 CNS = test system: SNB-75 CNS
UACC-257 melanoma = test system: UACC-257 melanoma
SN12C renal = test system: SN12C renal
UO-31 renal = test system: UO-31 renal
SF-268 CNS = test system: SF-268 CNS
TK-10 renal = test system: TK-10 renal
HCT-116 colon = test system: HCT-116 colon
OVCAR-3 ovarian = test system: OVCAR-3 ovarian
MALME-3M melanoma = test system: MALME-3M melanoma
HS 578T breast = test system: HS 578T breast
SK-MEL-2 melanoma = test system: SK-MEL-2 melanoma
A498 renal = test system: A498 renal
DU-145 prostate = test system: DU-145 prostate
NCI-H23 lung = test system: NCI-H23 lung
SK-MEL-28 melanoma = test system: SK-MEL-28 melanoma
MOLT-4 leukemia = test system: MOLT-4 leukemia
SK-OV-3 ovarian = test system: SK-OV-3 ovarian
COLO 205 colon = test system: COLO 205 colon
HCT-15 colon = test system: HCT-15 colon
RPMI-8226 leukemia = test system: RPMI-8226 leukemia
MDA-MB-231 breast = test system: MDA-MB-231 breast
ACHN renal = test system: ACHN renal
BT-549 breast = test system: BT-549 breast
HT29 colon = test system: HT29 colon
LOX IMVI melanoma = test system: LOX IMVI melanoma

SMILES: CCN(CC)c1ccc(N=O)cc1
- GI50 (PC-3 prostate): 3.14 µM
- TGI (PC-3 prostate): 12.1 µM
- GI50 (CAKI-1 renal): 1.29 µM
- TGI (CAKI-1 renal): 3.83 µM
- GI50 (OVCAR-5 ovarian): 3.51 µM
- TGI (OVCAR-5 ovarian): 14.3 µM
- GI50 (SNB-75 CNS): 3.47 µM
- TGI (SNB-75 CNS): 16.9 µM
- GI50 (UACC-257 melanoma): 1.82 µM
- TGI (UACC-257 melanoma): 4.15 µM
- GI50 (SN12C renal): 4.24 µM
- TGI (SN12C renal): 17.2 µM
- GI50 (UO-31 renal): 1.21 µM
- TGI (UO-31 renal): 3.81 µM
- GI50 (SF-268 CNS): 5.53 µM
- TGI (SF-268 CNS): 20.9 µM
- GI50 (TK-10 renal): 2.79 µM
- TGI (TK-10 renal): 10.8 µM
- GI50 (HCT-116 colon): 1.82 µM
- TGI (HCT-116 colon): 4.71 µM
- GI50 (OVCAR-3 ovarian): 1.97 µM
- TGI (OVCAR-3 ovarian): 4.61 µM
- GI50 (MALME-3M melanoma): 1.59 µM
- TGI (MALME-3M melanoma): 4.46 µM
- GI50 (HS 578T breast): 10.2 µM
- TGI (HS 578T breast): > 100 µM
- GI50 (SK-MEL-2 melanoma): 8.39 µM
- TGI (SK-MEL-2 melanoma): 22 µM
- GI50 (A498 renal): 13.6 µM
- TGI (A498 renal): 38.5 µM
- GI50 (DU-145 prostate): 6.43 µM
- TGI (DU-145 prostate): 19.9 µM
- GI50 (NCI-H23 lung): 1.95 µM
- TGI (NCI-H23 lung): 5.32 µM
- GI50 (SK-MEL-28 melanoma): 10.7 µM
- TGI (SK-MEL-28 melanoma): 23 µM
- GI50 (MOLT-4 leukemia): 3.34 µM
- TGI (MOLT-4 leukemia): 30.1 µM
- GI50 (SK-OV-3 ovarian): 12.4 µM
- TGI (SK-OV-3 ovarian): 29.3 µM
- GI50 (COLO 205 colon): 1.98 µM
- TGI (COLO 205 colon): 5.46 µM
- GI50 (HCT-15 colon): 2.26 µM
- TGI (HCT-15 colon): 12.8 µM
- GI50 (RPMI-8226 leukemia): 2.09 µM
- TGI (RPMI-8226 leukemia): 6.33 µM
- GI50 (MDA-MB-231 breast): 5.29 µM
- TGI (MDA-MB-231 breast): 20.9 µM
- GI50 (ACHN renal): 2.61 µM
- TGI (ACHN renal): 11.1 µM
- GI50 (BT-549 breast): 16.6 µM
- TGI (BT-549 breast): 30.5 µM
- GI50 (HT29 colon): 1.27 µM
- TGI (HT29 colon): 4.3 µM
- GI50 (LOX IMVI melanoma): 1.67 µM
- TGI (LOX IMVI melanoma): 3.53 µM
